In series [1] the test system is CCRF-CEM. The series is described as follows: Compound was tested for cellular toxicity against HIV in CEM cells at concentration up to 100 uM; IA means inactive. To be noted: human. The class given is cell-based.
The test system of series [2] is CCRF-CEM. The series is described as follows: The inhibitory dose against HIV in CEM cells was evaluated. The class given is functional, Homo sapiens. Particulars: read-out: ID50 (the source's name); call rule not given here.

Take `Cc1cn([C@@H]2C=C[C@H](CO)O2)c(=O)[nH]c1=O`: the Toxicity result in the series with CCRF-CEM [1] is recorded as “Not Active”.

`Nc1ccn([C@@H]2CC[C@H](CO)O2)c(=O)n1`: the IC50 in the series with CCRF-CEM [2] (Homo sapiens, CCRF-CEM) is 660 nM.

For the compound `Nc1ccn([C@@H]2C=C[C@H](CO)O2)c(=O)n1`, the Toxicity result with CCRF-CEM [1] is “Not Active”.

As for `Nc1ccn(C2CC[C@H](CO)O2)c(=O)n1` (single isomer, unassigned), the Toxicity entry with CCRF-CEM [1] is recorded as “Not Active”.

Consider `Nc1ncnc2c1ncn2[C@H]1CC[C@@H](CO)O1` (single isomer, unassigned), for which, in the series with CCRF-CEM [1], the Toxicity entry is “Not Active”.

As to `Nc1ccn([C@H]2CC[C@@H](CO)O2)c(=O)n1` (stereo in doubt; form 1) [ZALCITABINE], in the series with CCRF-CEM [2], the IC50 is less than 100 nM.

`Nc1ccn([C@H]2CC[C@@H](CO)O2)c(=O)n1` (stereo in doubt; form 2) [ZALCITABINE]: the IC50 with CCRF-CEM [2] was 40 nM.
